Results on one compound are retold here after patent US10077436B2, “Beta-glucosidase enzymes for increased biomass saccharification” (Edeniq, Inc., priority 2013, dated 2018).

A word on the Ki: it is the dissociation constant of the complex between target and ligand, obtained from inhibition or displacement. A high value points to a looser hold on the target.

In this test the target is T1, Aspergillus niger beta-glucosidase (CAB75696.1, SEQ ID NO:2) improved variant yEdQ885-BG (Aspergillus niger, UniProt Q9P8F4, Y363C/Y375F/Y610F).
T1 construct: strain yEdQ885, BG acid/base mutant #8
T1 sequence (Q9P8F4 20-860 Y363C/Y375F/Y610F): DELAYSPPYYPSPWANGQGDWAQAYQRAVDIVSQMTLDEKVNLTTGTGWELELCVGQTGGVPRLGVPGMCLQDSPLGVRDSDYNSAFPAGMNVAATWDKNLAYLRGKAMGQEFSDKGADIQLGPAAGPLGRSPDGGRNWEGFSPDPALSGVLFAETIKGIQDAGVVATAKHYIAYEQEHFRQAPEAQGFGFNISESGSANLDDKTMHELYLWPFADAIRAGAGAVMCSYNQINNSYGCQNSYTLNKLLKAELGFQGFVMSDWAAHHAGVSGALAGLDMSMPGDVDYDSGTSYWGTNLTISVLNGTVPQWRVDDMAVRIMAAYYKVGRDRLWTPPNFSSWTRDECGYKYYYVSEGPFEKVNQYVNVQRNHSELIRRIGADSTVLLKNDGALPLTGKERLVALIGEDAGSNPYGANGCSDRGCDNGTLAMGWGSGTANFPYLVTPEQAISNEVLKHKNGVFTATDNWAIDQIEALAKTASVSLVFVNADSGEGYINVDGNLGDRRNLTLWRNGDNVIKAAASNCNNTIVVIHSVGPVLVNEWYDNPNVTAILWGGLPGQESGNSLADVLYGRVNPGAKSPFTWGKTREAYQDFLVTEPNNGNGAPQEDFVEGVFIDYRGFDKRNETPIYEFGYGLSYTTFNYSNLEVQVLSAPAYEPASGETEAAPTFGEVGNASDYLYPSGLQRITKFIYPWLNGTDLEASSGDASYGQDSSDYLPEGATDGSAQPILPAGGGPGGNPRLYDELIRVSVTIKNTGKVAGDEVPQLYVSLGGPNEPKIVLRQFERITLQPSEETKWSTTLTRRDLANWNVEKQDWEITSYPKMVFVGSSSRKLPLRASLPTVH
Kind of test: BG kinetics, pNPG hydrolysis assay with glucose as competitive inhibitor, yEdQ885-BG. Type of test: biochemical. From the text: The beta-glucosidase (BG) gene from Aspergillus niger (Accession #CAB75696.1) was integrated into the TR3 yeast background at the T4U3 genomic site.
High resolution enzyme assays and kinetic testing comparing the beta-glucosidases described herein and commercial enzyme preparations were pursued to more clearly quantify differences in mutant BG enzymes compared to the wild type BG enzyme. Based on data presented herein, BG mutant YEdQ885 was selected for further analysis and compared to the BG activity present in commercial preparations of SP188 (Novozymes) and Accellerase® BG (DuPont) as well as wild type BG. […]
BG activity assay using pNPG is one of the two commonly used standard assays to measure BG activity, which utilizes hydrolysis of p-nitrophenyl-β-D-glucopyranoside (pNPG) by BG into a yellow colored product, p-nitrophenol (pNP), that has a strong absorbance at 405 nm. […] The reaction was then terminated by adding 100 μL of 0.25 M sodium carbonate, and the amount of pNP produced was determined by measuring absorbance at 405 nm using a predetermined calibration curve. […]
To determine the kinetic properties, a competitive inhibition mechanism was hypothesized as proposed in the literature (Chauve et al, 2010; Krogh et al, 2010). […] The turnover number, Kcat, can be calculated by Equation (2), where [Et] is the total amount of enzyme. […]

Turning to `OC[C@H]1OC(O)[C@H](O)[C@@H](O)[C@@H]1O` (some centres unmarked) [glucose], affinity was put at a Ki of 2190 ± 100 µM. For the setting “inhibitor influence, Km for pNPG / Ki for glucose, pH 5.0, 50° C.”, the Km/Ki amounted to 0.29.
